Data as given in patent publication US20170304396A1, “AQUEOUS SOLUTION FORMULATIONS OF VANCOMYCIN” (priority 2015, published 2017).
Values after ≈ are worked out from the molar mass of the structure shown. Structures can show the parent of a compound that is named as a salt.

Legend:
Solubility in water = format: physicochemical; conditions: for solubility: water
[1] = Merck Index (12th edition); cited from earlier work
[2] = format: physicochemical
Method: The aim of this study was to compare effects of various ingredients on vancomycin stability in a solution in order to identify a stabilizer that can slow the degradation of vancomycin in solution. Each solution sample (coded with an F-#) was prepared by dissolving vancomycin HCl to 1% concentration, along with stabilizer added at the concentrations listed in the Table below. Each solution was adjusted to about pH 4.7 and stored at 2-8° C. and 50° C. for 2 days. The stability of vancomycin was indicated by vancomycin recovery (% over the initial concentration) after storage at a selected temperature. The concentration of vancomycin or vancomycin assay was measured using HPLC method (USP Vancomycin Assay method). The relative stability of vancomycin in each solution was expressed in vancomycin concentration or assay recovery (% over the initial concentration).
The aim of this study was to compare various amino acids, including tryptophan, on their effects on vancomycin stability in an aqueous solution. The solution samples were prepared and tested similarly to Example 2.
The solution samples were prepared and tested in a similar way as in Example 2. The test sample compositions and test results are shown in the Table below and the effects of tryptophan concentration on vancomycin stability are depicted graphically in FIG. 4.

E. faecalis ATCC 29212 = assay: Minimum Inhibitory Concentration (CLSI); format: cell-based; conditions: Example 11
Description: (§1) Standards for this method are outlined by the Clinical and Laboratory Standards Institute (CLSI). The table below describes the vancomycin solution composition used to test antibiotic potency:
(§2) Standards for this method are outlined by the Clinical and Laboratory Standards Institute (CLSI).

S. aureus ATCC 25923 = assay: Minimum Inhibitory Concentration (CLSI); format: cell-based; conditions: Example 11
Description: as §1, §2

physchem = assay: physchem
Description: As used herein, “molecular complex” means a special interaction between two molecules that are not covalently bonded. […] One of the methods to detect molecular complex formation is the phase solubility diagram which measures changes in solubility of one molecule (“substrate”) as a function of the other molecule (“complexing agent”) (T. Higuchi and J. L. Lach, J. Am. Pharm. Assoc., Sci. Ed. 43, 349, 525, 527, 1954).
In addition, this study intended to determine the stoichiometric ratio of such molecular complex formed. To obtain a phase solubility diagram of tryptophan, pre-calculated amounts of tryptophan, vancomycin and water were added into a plastic tube to form a suspension in which vancomycin was completed dissolved but tryptophan was not completed dissolved, the suspension was adjusted to pH 6.2, mixed at room temperature (RT) overnight to reach dissolution/re-crystallization equilibrium, and then filtered through a 0.2-micorn filter membrane. The filtrate was diluted and analyzed by HPLC (using the USP HPLC vancomycin assay method) to determine the concentrations of tryptophan and vancomycin. The solubility of tryptophan measured and the concentration of vancomycin added measured in each suspension sample are provided in the Table below: […]

SMILES: CN[C@H](CC(C)C)C(=O)N[C@H]1C(=O)N[C@@H](CC(N)=O)C(=O)N[C@H]2C(=O)N[C@H]3C(=O)N[C@H](C(=O)N[C@H](C(=O)O)c4cc(O)cc(O)c4-c4cc3ccc4O)[C@H](O)c3ccc(c(Cl)c3)Oc3cc2cc(c3O[C@@H]2O[C@H](CO)[C@@H](O)[C@H](O)[C@H]2O[C@H]2C[C@](C)(N)[C@H](O)[C@H](C)O2)Oc2ccc(cc2Cl)[C@H]1O [vancomycin]
- vancomycin solubility limit in water (Solubility in water): about 12 % w/v
- solubility (Solubility in water; read-out: vancomycin solubility limit in water): ~120 mg/mL (≈ 82.8 mM)

SMILES: CN[C@H](CC(C)C)C(=O)N[C@H]1C(=O)N[C@@H](CC(N)=O)C(=O)N[C@H]2C(=O)N[C@H]3C(=O)N[C@H](C(=O)N[C@H](C(=O)O)c4cc(O)cc(O)c4-c4cc3ccc4O)[C@H](O)c3ccc(c(Cl)c3)Oc3cc2cc(c3O[C@@H]2O[C@H](CO)[C@@H](O)[C@H](O)[C@H]2O[C@H]2C[C@](C)(N)[C@H](O)[C@H](C)O2)Oc2ccc(cc2Cl)[C@H]1O [vancomycin hydrochloride]
- solubility of vancomycin hydrochloride in water [1]: > 10 % w/v

SMILES: CC(=O)N[C@@H](Cc1c[nH]c2ccccc12)C(=O)O [N-acetyl-tryptophan]
- effect of additive on vancomycin stability in solution [2]: capable of slowing down the degradation of vancomycin in solution

SMILES: N[C@@H](Cc1c[nH]c2ccccc12)C(=O)O [tryptophan]
- effect of addition of tryptophan on the MIC of vancomycin (E. faecalis ATCC 29212): does not affect the MIC of vancomycin
- effect of addition of tryptophan on the MIC of vancomycin (S. aureus ATCC 25923): does not affect the MIC of vancomycin
- solubility (Solubility in water; without vancomycin, read-out: tryptophan solubility in water): ~14 mg/mL (≈ 68.6 mM)
- effect of additive on vancomycin stability in solution [2]: capable of slowing down the degradation of vancomycin in solution
- effect of amino acid on vancomycin stability in solution [2]: capable of slowing down the degradation of vancomycin
- effect of tryptophan concentration on vancomycin stability in solution [2]: improves vancomycin stability in a concentration-dependent fashion
- tryptophan solubility (physchem; pH 6.2): 2.2%
- tryptophan solubility (estimated) (physchem; pH 6.2): ~2.5%
- solubility (physchem; pH 6.2, aqueous buffer, thermodynamic from solid): ~70 mM (≈ 14.3 mg/mL)
